≈ marks a conversion by molar mass, not a printed value.
Tests used:
(bladder) TB9 cells = assay: Anti-cancer activity (MTT assay), bladder TB9 cells; format: cell-based; settings: Homo sapiens
From the text: (Our purification methods and biological assays including the MTT assay in International Application No. PCT/US05/31900, filed Sep. 7, 2005, U.S. Ser. No. 11/289,142, filed Nov. 28, 2005, and U.S. Ser. No. 11/131,551, filed May 17, 2005, and PCT/US2008/002086, 1188-ALA-PCT, filed Feb. 15, 2008, the contents of which are incorporated herein by reference)
Experiment details of herb extraction, analysis of extract components by HPLC, determination of the cell-growth activity effected by Xanifolia Y with cells derived from different human organs using MTT Assay, purification of the bioactive components from plant extract, fractionation of plant extracts with FPLC, isolation of component Ys with preparative HPLC, determination of the chemical structure, cell experiments and animal studying are disclosed in PCT/US05/31900, U.S. Ser. No. 11/289,142, U.S. Serial 10/906,303, U.S. Ser. No. 11/131,551 and U.S. Ser. Nos. 11/683,198, filed on Mar. 7, 2007, PCT/US2007/077273, filed Aug. 30, 2007, U.S. Ser. No. 60/890,380, filed on Feb. 16, 2007, U.S. Nos. 60/947,705, filed on Jul. 3, 2007, PCT/US2008/002086, 1188-ALA-PCT, filed Feb. 15, 2008, the contents of which are incorporated herein by reference. Experiments 1-23 of PCT/US2008/002086, 1188-ALA-PCT, filed Feb. 15, 2008 are incorporated herein by reference.

[1] = system: Leishmania Major (promastigotes); assay: Cell growth of Leishmania parasites by MTT assay; format: cell-based; settings: Leishmania major, read-out: IC50, cytotoxic to Leishmania Major (promastigotes)
Experimental: Method: Leishmania parasites (Leishmania major: MRHO/SU/59/P/LV39) were grown in culture medium in a T75 flask at room temperature. Promastigotes of Leishmania major (approximately 40 million per ml) were used in the experiment. 1.2 ml cell culture was transferred to a well of the 24-wells plate. Saponin Y10 (0.2 ml in medium) with different concentrations (final 6.25-200 ug/ml) was added to culture and cells were grown for 1-5 days at room temperature. At the end of drug-treatment, 150 ul of MTT (5 mg/ml in PBS) was added to each well and incubated for 4 hours. Formazan formed in cells was dissolved with DMSO and the OD at 490 nm was determined by an ELISA reader.

[2] = system: ES2 (human ovarian cancer) xenograft tumor; assay: Genesis of blood vessels in xenograft tumor treated with compound Y; format: in vivo, Athymic Nu/Nu mice; settings: ES2 i.p. xenograft, 2.5 mg/kg i.p. daily days 10-15 and 18-22, H&E sections
Experimental: Method: Athymic Nu/Nu mice (5-6 weeks old) are divided into two groups (1 and 2) with 5 animals in each group. On day 0, all mice were transplanted intra-peritoneally with one million ES2 (human ovarian cancer) cells. Animals were randomly divided into two groups:
Group 2: Drug-treatment group. On days 10-15 and 18-22, animals received daily drug administration of Xanifolia-Y, by i.p. route at dosage of 2.5 mg/kg.
Animals with high tumor burden were euthanized and solid tumors were taken out from these mice (between 18-27 days). Tumor tissues fixed with formalin at room temperature. The fixed tissues were sectioned and stained with Haematoxylin and eosin (H&E). The red blood cells inside the micro blood vessels were identified under a microscope.

[3] = system: insulin-like growth factor binding protein 3 (IGFBP3); assay: Microarray gene expression in ES2 cells: IGFBP3; format: cell-based, human
From the text: (§1) The composition comprises bioactive compounds from natural plants or synthesis. The majority of the plants are from the Sapindaceae family, which has 140-150 genera with 1400-2000 species. The program is based on our purification methods and biological assays including the MTT assay See International Application No. PCT/US05/31900, filed Sep. 7, 2005, U.S. Ser. No. 11/289,142, filed Nov. 28, 2005, and U.S. Ser. No. 11/131,551, filed May 17, 2005, and PCT/US2008/002086, 1188-ALA-PCT, filed Feb. 15, 2008, the contents of which are incorporated herein by reference. The details of Analysis of gene expression of ES2 cells after Y-treatment by Microarray, Data Analysis Methods and Western blot in PCT/US2008/002086, 1188-ALA-PCT, filed Feb. 15, 2008, the contents of which are incorporated herein by reference

[4] = system: insulin-like growth factor binding protein 6 (IGFBP6); assay: Microarray gene expression in ES2 cells: IGFBP6; format: cell-based, human; settings: probe set 203851_at
From the text: as §1

[5] = system: RAB3B, member RAS oncogene family; assay: Microarray gene expression in ES2 cells: RAB3B; format: cell-based, human
From the text: as §1

[6] = system: potassium channel, subfamily U, member 1 (KCNU1); assay: Microarray gene expression in ES2 cells: potassium channel; format: cell-based, human; settings: ID 237273_at
From the text: as §1

[7] = system: dual specificity phosphatase 10 (DUSP10); assay: Microarray gene expression in ES2 cells: DUSP10; format: cell-based, human
From the text: as §1

Angiopoietin 2 (Ang2) = assay: Up regulation of Angiopoietin 2 (Ang2) in ES2 cells; format: cell-based, human; settings: study in PCT/US2008/002086
From the text: The results of study in PCT/US2008/002086, 1188-ALA-PCT, filed Feb. 15, 2008 are incorporated herein by reference.

ANGPT2 (angiopoietin 2) = assay: Gene expression by Real-time PCR: ANGPT2; format: cell-based; settings: DMSO control = 100
From the text: (§2) Determination of gene expression by Real-time PCR method (Brilliant QPCR, Agilent Technologies): The real-time polymerase chain reactions further confirm the results obtained from micro array analysis. The Real-time PCR results (shown below) confirmed that Compound Y3 and YM increase the expression of the genes: ANGPT2, DDIT3, LIF and NFKB1Z

[8] = system: DDIT3 (DNA-damage-inducible transcript 3); assay: Gene expression by Real-time PCR: DDIT3; format: cell-based; settings: DMSO control = 100
From the text: as §2

ITGAV (integrin alpha V) = assay: Gene expression by Real-time PCR: ITGAV; format: cell-based; settings: control = 100
From the text: as §2

TNC (Tenascin C) = assay: Gene expression by Real-time PCR: TNC; format: cell-based; settings: control = 100
From the text: as §2

LAMA4 (laminin alpha 4) = assay: Gene expression by Real-time PCR: LAMA4; format: cell-based; settings: control = 100
From the text: as §2

Compound: C/C=C(/C)C(=O)O[C@H]1[C@H](OC(=O)/C(C)=C\C)[C@@]2(CO)C(CC1(C)C)C1=CCC3[C@@]4(C)CC[C@H](O[C@@H]5OC(C(=O)O)[C@@H](O)[C@@H](O[C@@H]6O[C@@H](CO)[C@@H](O)C6O)C5O[C@@H]5OC(CO)[C@H](O)[C@@H](O)C5O)C(C)(C)C4CC[C@@]3(C)[C@]1(C)[C@@H](O)[C@H]2O (stereo partly drawn) [Y, 3-O-[β-D-galactopyranosyl(1→2)]-α-L-arabinofuranosy (1→3)-β-D-glucuronopyranosyl-21,22-O-diangeloyl-3β, 15α, 16α, 21β, 22α, 28-hexahydroxyolean-12-ene]
- IC50 ((bladder) TB9 cells): 5 µg/mL (≈ 4.38 µM)
- IC50 [1]: 15 µg/mL (≈ 13.1 µM)
- blood vessels in tumor sections ([2]; listed as Xanifolia Y): More blood vessels were observed in the control Group 1 than those in the drug-treated Group 2
- blood vessels in tumor sections ([2]; listed as Xanifolia-Y): more blood vessels were observed in the control Group1 than those in the drug-treated Group 2
- IGFBP3 expression, treated/D (DMSO control) ([3]; probe set 210095_s_at): −4.0
- IGFBP3 expression, treated/D (DMSO control) ([3]; probe set 212143_s_at): −3.7
- IGFBP6 expression, treated/D (DMSO control) [4]: −1.3
- RAB3B expression, treated/D (DMSO control) ([5]; ID 205924_at): −1.7
- RAB3B expression, treated/D (DMSO control) ([5]; ID 205925_s_at): −1.2
- RAB3B expression, treated/D (DMSO control) ([5]; ID 227123_at): −1.6
- RAB3B expression, treated/D (DMSO control) ([5]; ID 242629_at): −3.5
- KCNU1 expression, treated/D (DMSO control) [6]: −4.0
- DUSP10 expression (given as Y/D, YM/D) ([7]; 215501_s_at): 3.2
- DUSP10 expression (given as Y/D, YM/D) ([7]; 221563_at): 3.8
- Angiopoietin 2 (Ang2) in ES2 cells (Angiopoietin 2 (Ang2)): Up regulation
- ANGPT2 expression, % of control (ANGPT2 (angiopoietin 2)): 300 % of control
- DDIT3 expression, % of control [8]: 213 % of control
- ITGAV expression, % of control (ITGAV (integrin alpha V)): 63.8 % of control
- TNC expression, % of control (TNC (Tenascin C)): 41.1 % of control
- LAMA4 expression, % of control (LAMA4 (laminin alpha 4)): 53.6 % of control
